Experimental findings from patent US20060084599A1, “Compositions, methods and kits relating to notch signaling” (Maine Medical Center, priority 2003, published 2006) are described below.

The target in assay [1] is T1, human Jagged1 (Homo sapiens, UniProt P78504, A1171G).
T1 construct: the full-length human Jagged1 transcript was in vitro translated; made in house; host or cells: cell-free: T7-coupled reticulocyte lysate system (Promega)
The assay can be described thus: Thrombin cleavage of in vitro translated Jagged1 and Edman microsequencing. Type of assay: biochemical. Particulars: α-thrombin, 15 minutes at 37° C. The protocol:
(§1) A plasmid containing human Jagged1 (Zinrin et al., 1996, J. Biol. Chem. 271:32499-32502) was in vitro transcribed and in vitro translated in the presence of a (^35S)-Met/Cys protein-labeling mixture (Amersham) using the T7-coupled reticulocyte lysate system according to the manufacturer's instructions (Promega) in a total volume of 50 μl. After 60 minutes incubation at 30° C., 0.05% DTT was added, half of the reaction mixture incubated with 10 μg α-thrombin for 15 minutes at 37° C., and the reaction stopped by boiling in the presence of SDS-PAGE sample buffer. The samples were resolved by 12% SDS-PAGE, transferred to a nitrocellulose membrane, and analyzed by autoradiography. The bands corresponding to the thrombin cleavage products were excised and subjected to automated Edman microsequencing (Applied Bio Sciences). The products of each cycle were collected prior to resolution by HPLC, added to liquid scintillation fluid (Beckman) and the (^35S) samples quantitated by liquid scintillation spectroscopy (Beckman).

The target in assay [2] is T2, human Jagged1 (Homo sapiens, UniProt P78504).
T2 construct: the full-length human Jagged1 transcript was in vitro translated; made in house; host or cells: cell-free: T7-coupled reticulocyte lysate system (Promega)
T2 sequence (P78504 34-1218 A1171G): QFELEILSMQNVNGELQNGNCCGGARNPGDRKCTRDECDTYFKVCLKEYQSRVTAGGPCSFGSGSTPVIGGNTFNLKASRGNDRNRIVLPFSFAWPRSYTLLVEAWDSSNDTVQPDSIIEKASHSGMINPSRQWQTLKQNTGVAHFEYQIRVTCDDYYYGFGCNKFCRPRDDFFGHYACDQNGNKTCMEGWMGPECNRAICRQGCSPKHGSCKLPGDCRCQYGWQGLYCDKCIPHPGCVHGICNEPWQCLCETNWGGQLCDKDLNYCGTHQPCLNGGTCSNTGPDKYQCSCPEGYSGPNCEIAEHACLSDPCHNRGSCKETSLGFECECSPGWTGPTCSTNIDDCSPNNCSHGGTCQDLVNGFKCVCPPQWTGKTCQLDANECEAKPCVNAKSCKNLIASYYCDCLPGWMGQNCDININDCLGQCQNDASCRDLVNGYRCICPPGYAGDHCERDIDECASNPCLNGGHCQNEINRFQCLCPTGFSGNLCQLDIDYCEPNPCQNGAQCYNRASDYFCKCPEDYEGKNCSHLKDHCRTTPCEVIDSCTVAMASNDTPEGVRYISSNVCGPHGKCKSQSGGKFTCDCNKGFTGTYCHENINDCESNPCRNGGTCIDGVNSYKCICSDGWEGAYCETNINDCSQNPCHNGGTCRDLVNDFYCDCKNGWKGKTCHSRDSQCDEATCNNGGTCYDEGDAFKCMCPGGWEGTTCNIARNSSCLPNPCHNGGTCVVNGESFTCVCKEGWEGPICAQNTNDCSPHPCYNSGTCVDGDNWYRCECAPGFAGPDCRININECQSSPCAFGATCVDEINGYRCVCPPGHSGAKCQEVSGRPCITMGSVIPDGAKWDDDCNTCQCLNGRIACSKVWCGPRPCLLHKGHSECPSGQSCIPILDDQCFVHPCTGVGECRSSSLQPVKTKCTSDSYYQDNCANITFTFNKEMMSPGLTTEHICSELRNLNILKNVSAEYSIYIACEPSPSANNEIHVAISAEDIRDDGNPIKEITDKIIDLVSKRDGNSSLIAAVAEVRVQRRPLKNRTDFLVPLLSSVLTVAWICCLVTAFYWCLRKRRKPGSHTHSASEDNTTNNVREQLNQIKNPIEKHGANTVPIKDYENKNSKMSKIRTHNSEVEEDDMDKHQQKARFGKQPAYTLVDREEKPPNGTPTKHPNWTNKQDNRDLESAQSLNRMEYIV
The assay is described as above. Type of assay: biochemical. Particulars: Edman chemistry of 95 kDa fragment. The protocol: as §1

For the next assay, the system named is PAR1 null cells. The assay can be described thus: FGF1 release from PAR1 null cells. Type of assay: cell-based, mouse. Conditions: 10 μg/ml α-thrombin, 5 and 60 minutes. The protocol:
Murine NIH 3T3 (ATCC), Swiss 3T3 (ATCC), sJ1 NIH 3T3 cell transfectants were all disclosed elsewhere herein (e.g., Example 1), FGF1 NIH 3T3 transfectants (Jackson et al., 1992, Proc. Natl. Acad. Sci. U.S.A. 89:10691-10695) and PAR1 null mouse embryonic fibroblasts (a gift from Dr. S. Coughlin) were grown in Dulbecco's modified Eagle's medium (DMEM; Life Technologies) supplemented with 10% bovine calf serum (BCS; Hyclone) and 1× antibiotic/antimycotic (Life Technologies). All stable NIH 3T3 cell transfectant cultures were further supplemented with 0.4 g/L Geneticin (GIBCO). […]
FGF1R136K NIH 3T3 cell transfectants or adenovirally-transduced NIH 3T3 cells were washed with DMEM containing 5 units/ml of heparin (Sigma) and stimulated with either 10 μg/ml α-thrombin (a gift from Dr. J. Fenton) or 5 μM TRAP (Sigma) at 37° C. for different periods of time. […] Cell viability was assessed by measuring lactate dehydrogenase activity in the conditioned medium after filtration as disclosed previously elsewhere herein (published as Mandinova et al., 2003, J. Cell Sci. 116:2687-2696), and total cell lysates were obtained and processed for immunoblot analysis as described (Landriscina et al., 2001, J. Biol. Chem. 276:22544-22552). […]

In a further assay the target is T3, Delta1 (Homo sapiens, UniProt O00548).
T3 construct: made in house; host or cells: cell-free in vitro translation (system not described for Delta1)
T3 sequence (O00548 18-723): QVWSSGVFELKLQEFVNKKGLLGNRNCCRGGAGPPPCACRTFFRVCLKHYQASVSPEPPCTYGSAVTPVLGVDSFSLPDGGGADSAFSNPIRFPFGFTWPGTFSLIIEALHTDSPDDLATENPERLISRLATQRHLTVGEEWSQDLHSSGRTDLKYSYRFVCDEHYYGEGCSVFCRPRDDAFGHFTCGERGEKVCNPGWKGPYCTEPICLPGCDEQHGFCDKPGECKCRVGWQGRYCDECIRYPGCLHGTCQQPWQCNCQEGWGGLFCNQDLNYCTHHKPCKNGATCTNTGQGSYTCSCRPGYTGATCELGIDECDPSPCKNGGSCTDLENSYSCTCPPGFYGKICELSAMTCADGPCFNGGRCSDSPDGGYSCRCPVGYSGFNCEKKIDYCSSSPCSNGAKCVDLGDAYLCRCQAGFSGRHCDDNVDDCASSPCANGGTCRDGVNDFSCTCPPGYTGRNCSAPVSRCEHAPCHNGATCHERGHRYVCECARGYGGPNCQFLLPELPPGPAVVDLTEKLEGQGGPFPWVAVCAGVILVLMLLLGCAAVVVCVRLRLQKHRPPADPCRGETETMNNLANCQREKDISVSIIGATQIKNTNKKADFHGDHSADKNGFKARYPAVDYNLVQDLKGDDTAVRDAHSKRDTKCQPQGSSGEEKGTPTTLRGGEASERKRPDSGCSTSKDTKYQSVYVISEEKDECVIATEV
Description: Thrombin treatment of in vitro translated Delta1. Type of assay: biochemical.

The test system of a further assay is NSC populations. Description: NSC clonal expansion on full-length Jagged1 NIH 3T3 feeder layer. Type of assay: cell-based. Conditions: 5 μg/ml thrombin. An excerpt:
To further evaluate the activity of thrombin as a modifier of Jagged1, the clonal expansion studies were repeated using NSC populations cultured in the presence of a viable full-length Jagged1 NIH 3T3 cell transfectant feeder layer.

The subject of another assay is FGF1.A promoter. Description: FGF1.A promoter luciferase reporter. Type of assay: cell-based, murine. Conditions: sJ1 NIH 3T3 cell transfectants versus insert-less vector. The protocol: In order to confirm the sJ1-dependent function of the FGF1.A promoter, the corresponding 1.8 Kbp region (Madiai et al., 1999, J. Biol. Chem. 274:11937-11944) was cloned into a promoter-less firefly luciferase reporter vector and FGF1.A-driven firefly luciferase activity was evaluated in both insert-less vector and sJ1 NIH 3T3 cell transfectants.
For orientation: A reporter such as luciferase makes a cellular process visible.

T1 sequence (P78504 34-1218 A1171G): as the sequence (P78504 34-1218 A1171G) above

On to thrombin, for which, at human Jagged1 [1], the “cleavage of 134 kDa Jagged1 translation product” value is “cleavage of the full-length Jagged1 protein into 39 kDa and 95 kDa fragments”. In addition, the Jagged1 cleavage site result at human Jagged1 [2] was “between residues R348 and G349”. Moreover, in the assay on PAR1 null cells, the “export of FGF1R136K from PAR1 null cells” value is on record as “unable to induce the export of the FGF1R136K mutant”. In addition, the “proteolytic modification of Delta1 translation product” value at Delta1 is on record as “unable to proteolytically modify the in vitro translation product of the Delta1 transcript”. Also, in the assay on NSC populations, the “size of NSC colonies on full-length Jagged1 feeder layer” value was “exaggeration of the size of the NSC colonies”.

In the case of “sJ1: Soluble Jagged1, amino acid residues about 1 to 1067 (SEQ ID NO:3) of full-length human Jagged1”, the FGF1.A-driven promoter activity entry with FGF1.A promoter was “significant increase in the FGF1.A-driven promoter activity”.
